Measurements as given in patent publication US11214803B2, “Modulators of YAP1 expression” (Ionis Pharmaceuticals, Inc., priority 2019, dated 2022).
Strand notation (5' to 3'): a small letter for the sugar, then the base; units joined by * are phosphorothioate-linked, units joined directly phosphodiester-linked; [ ] holds rarer units or linkages, { } end groups; capitals alone tell only the bases. k = constrained ethyl (cEt); [5mC] = 5-methylcytosine; d = 2'-deoxy (DNA)

system: Yap1 mRNA; assay: Antisense inhibition of human Yap1 in A-431 cells by cEt gapmers, single dose (Example 2, RTS4814); format: cell-based; settings: A-431 cells, 5,000 cells per well, free uptake, 2,000 nM modified oligonucleotide, approx. 48 hours, RTS4814, normalized to RIBOGREEN; Table 4; asterisk (*) = targets amplicon region of primer probe set
In short: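 Each 16-nucleoside gapmer (ten-deoxy gap, three-cEt wings) is tested once at 2,000 nM in A-431 cells by free uptake. Yap1 mRNA after about 48 hours is measured by quantitative RT-PCR and expressed relative to untreated control.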

Row | Substance | YAP1 (% UTC)
1 | 716400 (kT*kA*kA*d[5mC]*dT*d[5mC]*d[5mC]*dT*dG*dA*d[5mC]*dA*dT*kT*kT*kT; antisense) [Compound 716400] | 106
2 | 716565 (kG*kG*kG*d[5mC]*dT*dA*dA*d[5mC]*dT*dA*d[5mC]*dA*dT*kT*kG*k[5mC]; antisense) [Compound 716565] | 129

same assay, conditions: Table 5; A-431 cells, 5,000 cells per well, free uptake, 2,000 nM modified oligonucleotide, approx. 48 hours; RTS4814; normalized to RIBOGREEN; Yap1 mRNA relative to untreated control cells

Row | Substance | YAP1 (% UTC)
3 | 716407 (k[5mC]*kT*kT*dA*dG*dT*d[5mC]*d[5mC]*dA*d[5mC]*dT*dG*dT*k[5mC]*kT*kG; antisense) [Compound 716407] | 35
4 | 716491 (k[5mC]*kT*kG*dG*dT*dG*d[5mC]*d[5mC]*dA*d[5mC]*dT*dT*dT*kA*kA*kT; antisense) [Compound 716491] | 54
5 | 716560 (kT*kA*kA*d[5mC]*dA*dA*dT*dT*dT*dA*dT*dG*dT*kA*kA*kG; antisense) [Compound 716560] | 107
6 | 716557 (kA*kT*kT*dG*dG*dT*dA*d[5mC]*dT*dA*dT*dA*dT*kA*kT*kA; antisense) [Compound 716557] | 80

same assay, conditions: Table 6; A-431 cells, 5,000 cells per well, free uptake, 2,000 nM modified oligonucleotide, approx. 48 hours; RTS4814; normalized to RIBOGREEN; Yap1 mRNA relative to untreated control cells

Row | Substance | YAP1 (% UTC)
7 | 716540 (antisense kG*kA*kA*dA*dA*dG*dT*dT*dA*dT*dT*dA*d[5mC]*kA*kA*k[5mC]) [Compound 716540] | 120
8 | 716408 (k[5mC]*kA*k[5mC]*dT*dG*dT*dA*dG*d[5mC]*dT*dG*d[5mC]*dT*k[5mC]*kA*kT; antisense) [Compound 716408] | 54
9 | 716378 (kG*k[5mC]*kA*dG*dA*dG*dG*dT*dA*d[5mC]*dA*dT*d[5mC]*kA*kT*k[5mC]; antisense) [Compound 716378] | 44

same assay, conditions: Table 18; A-431 cells, 5,000 cells per well, free uptake, 2,000 nM modified oligonucleotide, approx. 48 hours; RTS4814; normalized to RIBOGREEN; Yap1 mRNA as percent of untreated control

Row | Substance | YAP1 (% UTC)
10 | 1076420 (k[5mC]*k[5mC]*kA*dT*dA*dT*dA*dA*dT*dA*dA*d[5mC]*d[5mC]*k[5mC]*kA*kT; antisense) [Compound 1076420] | 26
11 | 1074724 (antisense kG*kG*kG*dT*dA*dA*dA*dG*dG*dA*dA*dG*dA*kT*k[5mC]*kT) [Compound 1074724] | 22
12 | 1074596 (antisense kT*kT*k[5mC]*dT*dA*dT*d[5mC]*d[5mC]*dA*dG*dG*dG*dT*k[5mC]*kA*kA) [Compound 1074596] | 12
13 | 1076484 (antisense kG*kA*kA*dA*d[5mC]*dG*dG*dG*dA*dA*dA*dT*d[5mC]*kA*kT*kA) [Compound 1076484] | 10
14 | 1075588 (kA*k[5mC]*kT*dT*dA*dT*dT*dA*dG*d[5mC]*dA*d[5mC]*d[5mC]*kT*kG*kG; antisense) [Compound 1075588] | 27

same assay, conditions: Table 19; A-431 cells, 5,000 cells per well, free uptake, 2,000 nM modified oligonucleotide, approx. 48 hours; RTS4814; normalized to RIBOGREEN; Yap1 mRNA as percent of untreated control

Row | Substance | YAP1 (% UTC)
15 | 1074565 (antisense kA*k[5mC]*kT*dG*dA*dA*dT*dT*d[5mC]*d[5mC]*dA*dA*dT*k[5mC]*kG*kA) [Compound 1074565] | 5
16 | 1075589 (kA*kA*kT*dT*dA*dG*d[5mC]*dA*dG*dG*dG*d[5mC]*dA*kG*kA*k[5mC]; antisense) [Compound 1075589] | 84
17 | 1076037 (k[5mC]*kT*kT*dA*dA*dA*dT*dT*d[5mC]*dT*d[5mC]*dT*dT*kA*k[5mC]*kG; antisense) [Compound 1076037] | 21
18 | 1075685 (k[5mC]*kA*kT*dA*dA*dT*d[5mC]*dA*dA*dA*dG*dG*dG*kT*kG*k[5mC]; antisense) [Compound 1075685] | 60

same assay, conditions: Table 20; Yap1 mRNA, percent of untreated control; 3-10-3 cEt gapmers targeting SEQ ID NO.: 1 and 2

Row | Substance | YAP1 (% UTC)
19 | 1075238 (antisense k[5mC]*kT*kT*dA*dA*dA*d[5mC]*dA*dG*dG*dT*dG*d[5mC]*k[5mC]*kA*kA) [Compound 1075238] | 24

same assay, conditions: Table 21; Yap1 mRNA, percent of untreated control; 3-10-3 cEt gapmers targeting SEQ ID NO.: 1 and 2

Row | Substance | YAP1 (% UTC)
20 | 1074503 (k[5mC]*kA*kA*d[5mC]*dT*dA*d[5mC]*dA*dA*dT*dA*dA*d[5mC]*k[5mC]*kA*kT; antisense) [Compound 1074503] | 29

same assay, conditions: Table 22; Yap1 mRNA as percent of untreated control; 3-10-3 cEt gapmers; single dose

Row | Substance | YAP1 (% UTC)
21 | 1076200 (kG*kA*kT*dT*dA*d[5mC]*dA*d[5mC]*dT*dA*dT*d[5mC]*dA*kA*kA*kA; antisense) [Compound 1076200] | 67
22 | 1074312 (antisense kA*kT*kA*dT*dT*d[5mC]*d[5mC]*dG*d[5mC]*dA*dT*dT*dG*k[5mC]*k[5mC]*kT) [Compound 1074312] | 18
23 | 1076008 (kA*kG*k[5mC]*dG*dA*dA*dA*dA*dT*dA*dA*d[5mC]*dA*kT*kT*kA; antisense) [Compound 1076008] | 33
24 | 1076072 (k[5mC]*kA*k[5mC]*dA*dA*dA*dA*dA*d[5mC]*dT*dG*dG*dT*k[5mC]*kT*kG; antisense) [Compound 1076072] | 18

same assay, conditions: Table 23; Yap1 mRNA as percent of untreated control; 3-10-3 cEt gapmers; single dose

Row | Substance | YAP1 (% UTC)
25 | 1075113 (antisense kT*kA*kT*dA*dA*dA*dT*dA*d[5mC]*d[5mC]*dA*dG*dG*kT*kA*k[5mC]) [Compound 1075113] | 67
26 | 1075337 (kG*k[5mC]*kT*dT*dA*dT*dA*dT*d[5mC]*d[5mC]*dT*dG*dT*kA*kA*k[5mC]; antisense) [Compound 1075337] | 48
27 | 1074601 (antisense k[5mC]*k[5mC]*kA*dG*d[5mC]*dT*dA*dA*d[5mC]*dT*d[5mC]*dA*dA*kA*kA*k[5mC]) [Compound 1074601] | 24
28 | 1074889 (antisense kA*kG*kT*dT*dT*dA*dG*d[5mC]*d[5mC]*dT*dG*dA*dA*kG*k[5mC]*kA) [Compound 1074889] | 42
29 | 1074761 (kT*kA*k[5mC]*d[5mC]*d[5mC]*dA*dA*dT*dA*d[5mC]*dA*dA*d[5mC]*k[5mC]*kA*kA; antisense) [Compound 1074761] | 15

same assay, conditions: Table 24; Yap1 mRNA as percent of untreated control; 3-10-3 cEt gapmers targeting SEQ ID NO.: 1, and 2

Row | Substance | YAP1 (% UTC)
30 | 1076138 (kA*kG*k[5mC]*d[5mC]*dA*dA*d[5mC]*dA*dA*dT*dT*dT*dT*kT*kG*kG; antisense) [Compound 1076138] | 113
31 | 1075690 (k[5mC]*kG*kT*dT*dA*dA*d[5mC]*dA*dA*d[5mC]*dT*dA*dT*kA*k[5mC]*kA; antisense) [Compound 1075690] | 33

same assay, conditions: Table 25; Yap1 mRNA as percent of untreated control; 3-10-3 cEt gapmers targeting SEQ ID NO.: 1, and 2

Row | Substance | YAP1 (% UTC)
32 | 1076139 (k[5mC]*kG*kA*dA*dA*dA*dA*dA*dG*d[5mC]*d[5mC]*dA*dA*k[5mC]*kA*kA; antisense) [Compound 1076139] | 18
33 | 1074379 (antisense kT*kG*kG*dG*dA*dA*dA*d[5mC]*dG*dG*dT*dT*d[5mC]*kT*kG*k[5mC]) [Compound 1074379] | 20

same assay, conditions: Table 32; Yap1 mRNA, percent of untreated control; 3-10-3 cEt gapmers targeting SEQ ID NO.: 1, and 2

Row | Substance | YAP1 (% UTC)
34 | 1074194 (antisense k[5mC]*k[5mC]*kG*dG*dG*dT*d[5mC]*d[5mC]*dG*dG*dA*d[5mC]*dG*kG*k[5mC]*kG) [compound 1074194] | 57
35 | 1075890 (antisense kG*kA*kT*dT*dA*dA*dA*dA*dG*dT*dA*dG*dG*k[5mC]*k[5mC]*k[5mC]) [compound 1075890] | 92
36 | 1076178 (k[5mC]*k[5mC]*kT*dG*dA*dA*dA*dT*dA*d[5mC]*dA*dG*dG*kT*kG*kT; antisense) [compound 1076178] | 100

same assay, conditions: Table 33; Yap1 mRNA, percent of untreated control; 3-10-3 cEt gapmers targeting SEQ ID NO.: 1, and 2

Row | Substance | YAP1 (% UTC)
37 | 1075219 (k[5mC]*k[5mC]*kT*dT*dA*dA*d[5mC]*dA*d[5mC]*dT*dG*dG*dT*kA*kA*kG; antisense) [compound 1075219] | 117

same assay, conditions: Yap1 mRNA as percent of untreated control; A-431 cells; 3-10-3 cEt gapmers targeting SEQ ID NO.: 1, and 2; Table 30

Row | Substance | YAP1 (% UTC)
38 | 1076528 (kT*kT*kA*dT*dA*dA*dT*dG*dG*dG*dA*dG*dG*kA*kT*kT; antisense) [compound 1076528] | 86
39 | 1075344 (antisense kT*kA*kA*d[5mC]*dT*dA*dA*dA*dA*dG*dG*dG*dA*kG*kT*kA) [compound 1075344] | 91
40 | 1074896 (antisense kG*k[5mC]*kA*dA*dA*dG*dT*dT*d[5mC]*d[5mC]*dT*dA*dT*kG*k[5mC]*kT) [compound 1074896] | 99
41 | 1074288 (antisense kG*kA*k[5mC]*dT*dG*dA*dT*dT*d[5mC]*dT*d[5mC]*dT*dG*kG*kT*kT) [compound 1074288] | 48
42 | 1074160 (kG*k[5mC]*kG*dA*dG*d[5mC]*dG*dA*dG*dG*dG*d[5mC]*dT*kA*k[5mC]*kG; antisense) [compound 1074160] | 86

same assay, conditions: Yap1 mRNA as percent of untreated control; A-431 cells; 3-10-3 cEt gapmers targeting SEQ ID NO.: 1, and 2; Table 31

Row | Substance | YAP1 (% UTC)
43 | 1075601 (antisense kA*k[5mC]*kA*d[5mC]*dT*dA*dT*dA*dA*dT*d[5mC]*dT*dG*kA*k[5mC]*k[5mC]) [compound 1075601] | 50
44 | 1075153 (kA*kT*kT*dA*dT*dA*dA*dT*dG*dG*dG*dA*dG*kG*kA*kT; antisense) [compound 1075153] | 38
45 | 1074705 (antisense kG*k[5mC]*kA*d[5mC]*dG*dG*dT*dG*dT*dA*dA*dG*dA*k[5mC]*kA*kA) [compound 1074705] | 20
